In data set [1] the test system is Rattus norvegicus. In words: Neurotoxicity in Sprague-Dawley rat assessed as induction of hind limb flexion at 1000 to 1500 ug/kg, ip after 15 to 30 mins by LORR test. It is filed as toxicity, organism-based, Hindlimb. The note with it: in vivo.
The test system of data set [2] is Rattus norvegicus. The data set is described as follows: Neurotoxicity in Sprague-Dawley rat assessed as exploratory behaviour changes at 10 to 2000 ug/kg, ip after 30 mins by LORR test. It is filed as toxicity, organism-based. The note with it: in vivo, 0.5 h.
Data set [3] deals with Rattus norvegicus. The data set is described as follows: Neurotoxicity in Sprague-Dawley rat assessed as induction of forpaw grasping reflex at 1000 to 1500 ug/kg, ip after 15 to 30 mins by LORR test. It counts as toxicity, organism-based. Conditions: in vivo.
The subject of data set [4] is Rattus norvegicus. In words: Neurotoxicity in Sprague-Dawley rat assessed as induction of resistance to lateral push at 1000 to 1500 ug/kg, ip after 15 to 30 mins by LORR test. It counts as toxicity, organism-based. Conditions: in vivo.

This is an account of results in ChEMBL document CHEMBL3797164, “Transfer of SAR information from hypotensive indazole to indole derivatives acting at α-adrenergic receptors: In vitro and in vivo studies” (Eur J Med Chem, 2016).

Structures are written as SMILES.

In the case of `Cl.Clc1cccc2ccn(CC3=NCCN3)c12`, the Activity result is on record as “Toxic” in data set [1], “Non-toxic” in data set [2], “Non-toxic” in data set [3] and “Non-toxic” in data set [4].
